Test results as given in US20060293223A1 (Eli Lilly and Company Patent Division, priority 2003, published 2006).
Positions of bridges follow the written chain, without caps; N, C: chain ends. Non-standard residues stand in square brackets, D forms with d. No end group written: not given here. NMeY = CN[C@@H](Cc1ccc(O)cc1)C(=O)O; hCys = N[C@@H](CCS)C(=O)O

test system: MC1/MC4; settings: ratio MC1/MC4
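Note: ratio of EC50 values obtained at MC1 versus MC4 receptors, with MC1 potency measured by luciferase reporter activity in stably transfected cells expressing human MC1.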

Substance	MC1/MC4 selectivity
Arg-cyclo[Cys-Glu-His-D-Phe-Arg-Trp-Cys]-OH [Compound 45]	30.47
Arg-cyclo[Cys-His-(4-Cl-D-Phe)-Arg-Trp-hCys]-NH2 [Compound 188]	29.56
Arg-cyclo[Cys-His-(4-F-D-Phe)-Arg-Trp-hCys]-NH2 [Compound 187]	20.76
Arg-cyclo[hCys-(1-Me-D-His)-D-Phe-Arg-Trp-Cys]-NH2 [Compound 157]	17.60
Arg-cyclo[hCys-(1-Me-His)-D-Phe-Arg-Trp-Cys]-NH2 [Compound 156]	158.41
Arg-cyclo[hCys-His-D-Phe-Arg-Trp-hCys]-NH2 [Compound 194]	10.61
N-(2-naphthalenesulfonyl)-D-Arg-cyclo[Cys-Glu-His-D-Phe-Arg-Trp-Cys]-NH2 [Compound 64]	4.12
N-(2-naphthalenesulfonyl)-cyclo[hCys-His-D-Phe-Arg-Trp-Cys]-NH2 [Compound 151]	14.00
N-(2-naphthalenesulfonylamino-4-oxo-butyryl)-D-Arg-cyclo[Cys-Glu-His-D-Phe-Arg-Trp-Cys]-NH2 [Compound 65]	2.70
N-(4-phenylsulfonamido-4-oxo-butyryl)-cyclo[hCys-His-D-Phe-Arg-Trp-Cys]-NH2 [Compound 152]	7.73
N-butyryl-cyclo[Cys-Glu-His-D-Phe-Arg-Trp-Cys]-NH2 [Compound 38]	28.16
N-cyclobutanecarbonyl-cyclo[hCys-His-D-Phe-Arg-Trp-Cys]-NH2 [Compound 142]	35.55
N-cyclohexanecarbonyl-cyclo[hCys-His-D-Phe-Arg-Trp-Cys]-NH2 [Compound 144]	14.85
N-cyclohexanecarbonyl-cyclo[hCys-His-D-Phe-Arg-Trp-penicillamine]-NH2 [Compound 172]	26.45
N-cyclopentanecarbonyl-cyclo[hCys-His-D-Phe-Arg-Trp-Cys]-NH2 [Compound 143]	19.27
N-cyclopentanecarbonyl-cyclo[hCys-His-D-Phe-Arg-Trp-penicillamine]-NH2 [Compound 171]	75.11
N-cyclopropanecarbonyl-cyclo[hCys-His-D-Phe-Arg-Trp-Cys]-NH2 [Compound 141]	83.00
N-glutaryl-Tyr-Arg-cyclo[Cys-Glu-His-D-Phe-Arg-Trp-Cys]-NH2 [Compound 75]	6.00
N-glutaryl-Tyr-Arg-cyclo[Cys-Glu-His-D-Phe-Arg-Trp-Cys]-OH [Compound 76]	6.00
N-hexanoyl-cyclo[hCys-His-D-Phe-Arg-Trp-Cys]-NH2 [Compound 145]	3.82
N-hexanoyl-cyclo[hCys-His-D-Phe-Arg-Trp-penicillamine]-NH2 [Compound 170]	9.00
N-phenylsulfonyl-cyclo[hCys-His-D-Phe-Arg-Trp-Cys]-NH2 [Compound 150]	12.88
N-propionyl-cyclo[Cys-Glu-His-D-Phe-Arg-Trp-Cys]-NH2 [Compound 37]	36.99
N-succinyl-Tyr-Arg-cyclo[Cys-Glu-His-D-Phe-Arg-Trp-Cys]-NH2 [Compound 74]	12.00

Substance	MC1/MC4 selectivity
N-succinyl-Tyr-Arg-cyclo[Cys-Glu-His-D-Phe-Arg-Trp-Cys]-OH [Compound 131]	7.00
N-valeryl-cyclo[Cys-Glu-His-D-Phe-Arg-Trp-Cys]-NH2 [Compound 39]	19.67
RCH[dF]RW[hCys]-NH2 (disulfide 2-7) [Compound 186]	11.44
R[hCys]H[dF]RWC-NH2 (disulfide 2-7) [Compound 153]	41.81
R[hCys]H[dF]RWC-OH (disulfide 2-7) [Compound 155]	55.84
Tyr-Arg-cyclo[Cys-Glu-His-D-Phe-Arg-Trp-Cys]-NH2 [Compound 68]	14.08
Tyr-Arg-cyclo[Cys-Glu-His-D-Phe-Arg-Trp-Cys]-NH—(CH2)6—NH2 [Compound 70]	2.00
Tyr-Arg-cyclo[Cys-Glu-His-D-Phe-Arg-Trp-Cys]-OH [Compound 69]	18.38
YRCEH[dF]RWCE-NH2 (disulfide 3-9) [Compound 71]	5.13
YRCGH[dF]RWC-NH2 (disulfide 3-9) [Compound 11]	11.00
YR[hCys]H[dF]RWC-NH2 (disulfide 3-8) [Compound 162]	30.07
YR[hCys]H[dF]RWC-OH (disulfide 3-8) [Compound 163]	19.46
[NMeY]RCMH[dF]RWC-NH2 (disulfide 3-9) [Compound 17]	10.42
[dR][hCys]H[dF]RWC-NH2 (disulfide 2-7) [Compound 154]	36.00
cyclo[3-thiopropionyl-His-D-Phe-Arg-Trp-hCys]-NH2 [Compound 179]	5.35
cyclo[Cys-Glu-His-D-Phe-Arg-Trp-Cys]-NH2 [Compound 29]	15.00
cyclo[Cys-His-(4-Cl-D-Phe)-Arg-Trp-hCys]-NH2 [Compound 182]	185.74
cyclo[Cys-His-(4-F-D-Phe)-Arg-Trp-hCys]-NH2 [Compound 181]	45.25
cyclo[Cys-His-D-Phe-Arg-Trp-hCys]-NH2 [Compound 180]	30.38
cyclo[hCys-His-(4-Cl-D-Phe)-Arg-Trp-Cys]-NH2 [Compound 135]	120.27
cyclo[hCys-His-(4-F-D-Phe)-Arg-Trp-Cys]-NH2 [Compound 134]	68.42
cyclo[hCys-His-D-Phe-Arg-Trp-Cys]-NH2 [Compound 132]	77.32
cyclo[hCys-His-D-Phe-Arg-Trp-Cys]-OH [Compound 133]	31.29
phenylsulfonyl-Gly-cyclo[hCys-His-D-Phe-Arg-Trp-Cys]-NH2 [Compound 161]	2.18
